Active and inactive are the calls of the source.

Series [1] is described as follows: NIH-3T3 fibroblast cytotoxicity, dose response, cytotoxicity control, cell-based, fluorescence, Alamar Blue, secondary assay (AID 2327).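 Note: NIH-3T3 mouse fibroblasts cultured with fluconazole at 8 µg/mL.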 In kind it is functional.
A short description of series [2]: fluconazole-exposed Candida albicans growth modulators – fluorescence, retest, confirmation (AID 2467). In kind it is functional, cell-based.
For series [3], the target named is T1, Short transient receptor potential channel 4 (Mus musculus, UniProt Q9QUQ5).
T1 sequence (Q9QUQ5 whole entry): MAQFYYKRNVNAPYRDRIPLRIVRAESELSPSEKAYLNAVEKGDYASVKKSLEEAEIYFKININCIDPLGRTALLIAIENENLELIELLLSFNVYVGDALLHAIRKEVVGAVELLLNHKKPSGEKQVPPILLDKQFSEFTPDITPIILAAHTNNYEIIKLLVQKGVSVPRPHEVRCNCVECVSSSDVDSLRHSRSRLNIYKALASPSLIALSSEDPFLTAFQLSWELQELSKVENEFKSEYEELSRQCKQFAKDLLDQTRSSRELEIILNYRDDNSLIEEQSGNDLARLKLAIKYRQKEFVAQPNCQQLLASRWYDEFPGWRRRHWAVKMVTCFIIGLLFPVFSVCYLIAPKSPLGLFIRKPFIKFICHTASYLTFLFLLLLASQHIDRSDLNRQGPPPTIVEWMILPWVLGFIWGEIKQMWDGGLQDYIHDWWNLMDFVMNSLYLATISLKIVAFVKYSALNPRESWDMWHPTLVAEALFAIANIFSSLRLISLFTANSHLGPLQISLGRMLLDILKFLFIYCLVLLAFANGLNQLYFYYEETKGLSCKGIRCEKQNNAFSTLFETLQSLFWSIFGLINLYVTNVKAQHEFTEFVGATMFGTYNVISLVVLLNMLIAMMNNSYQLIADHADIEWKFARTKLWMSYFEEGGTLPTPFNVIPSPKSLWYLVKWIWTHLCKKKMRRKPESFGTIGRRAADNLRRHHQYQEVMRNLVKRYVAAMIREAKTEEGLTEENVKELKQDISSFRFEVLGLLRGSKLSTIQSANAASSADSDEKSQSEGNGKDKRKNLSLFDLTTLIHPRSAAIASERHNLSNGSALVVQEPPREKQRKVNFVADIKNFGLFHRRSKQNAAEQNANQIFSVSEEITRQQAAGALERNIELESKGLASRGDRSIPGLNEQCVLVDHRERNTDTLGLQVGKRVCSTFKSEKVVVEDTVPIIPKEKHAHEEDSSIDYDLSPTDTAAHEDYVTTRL
The experiment in a line: calcium entry via TRPC4 opening agents – cell-based, HEK293 TRPC4/mu-opioid, Fluo-4 calcium, dose response (AID 434937). In kind it is functional.

The subject of series [4] is Vero. Nature of the series: cells. In kind it is functional, cell-based. To be noted: Chlorocebus sabaeus.
Series [5] deals with Vero. Nature of the series: cells. In kind it is functional. As to conditions: Chlorocebus sabaeus.
Series [6] has as its target T2, Delta-type opioid receptor (Homo sapiens, UniProt P41143). Nature of the series: HTS Image-Based Screen for Antagonists of the DOR Receptor. [Related pubchem assays (depositor defined):AID1777, AID1785, AID1786, AID2133]. In kind it is functional.
Series [7] addresses T3, Mu-type opioid receptor (Homo sapiens, UniProt P35372). The experiment in a line: HTS Image-Based Screen for Agonists of the MOR Receptor. [Related pubchem assays (depositor defined):AID1777, AID1785, AID1786, AID2133]. In kind it is functional.
Series [8] addresses T2, Delta-type opioid receptor. The experiment in a line: HTS Image-Based Screen for Agonists of the DOR Receptor. [Related pubchem assays (depositor defined):AID1777, AID1786, AID2133]. In kind it is functional.
Series [9] deals with T4, Kappa-type opioid receptor (Homo sapiens, UniProt P41145). In kind it is functional.
T4 sequence (P41145 whole entry): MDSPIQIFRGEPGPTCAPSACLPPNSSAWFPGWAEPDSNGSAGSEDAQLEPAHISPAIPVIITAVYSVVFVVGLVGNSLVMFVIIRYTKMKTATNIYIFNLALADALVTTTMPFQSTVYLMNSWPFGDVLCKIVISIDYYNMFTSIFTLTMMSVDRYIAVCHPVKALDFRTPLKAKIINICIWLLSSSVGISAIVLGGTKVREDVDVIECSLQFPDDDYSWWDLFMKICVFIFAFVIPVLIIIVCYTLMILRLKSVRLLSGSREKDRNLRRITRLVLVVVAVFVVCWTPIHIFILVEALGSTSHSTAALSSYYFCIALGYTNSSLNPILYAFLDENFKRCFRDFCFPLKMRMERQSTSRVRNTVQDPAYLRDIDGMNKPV
In series [10] the target is T4, Kappa-type opioid receptor. In kind it is functional. This is another data set of the same source.
For series [11], the target named is T4, Kappa-type opioid receptor. In kind it is functional. The source holds these as a separate data set.
Series [12] deals with T4, Kappa-type opioid receptor. The experiment in a line: SAR analysis of small molecule agonists of the kappa opioid receptor via a luminescent beta-arrestin assay. [Related pubchem assays (depositor defined):AID1777, AID1786, AID1966, AID2133, AID2136, AID2348, AID2352, AID2357, AID2359, AID2370, AID2420, AID2478, AID2491, AID2492, AID2493, AID2497, AID2498, AID2500, AID449737, AID488822, AID488842]. In kind it is functional.

For series [13], the target named is T3, Mu-type opioid receptor. The experiment in a line: mu opioid receptor activators, image-based, SAR follow-up (AID 2352). In kind it is functional.
In series [14] the target is T2, Delta-type opioid receptor. Nature of the series: DOR agonists, SAR follow-up, image-based (AID 2370). In kind it is functional.
In series [15] the target is T4, Kappa-type opioid receptor. The experiment in a line: kappa opioid receptor blockers, image-based, SAR follow-up (AID 2348). In kind it is functional.
The target in series [16] is T3, Mu-type opioid receptor. Nature of the series: mu opioid receptor blockers – image-based, SAR follow-up (AID 2420).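 Note: compounds added before stimulation of receptor with agonist DAMGO.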 In kind it is functional.
Series [17] concerns the target T4, Kappa-type opioid receptor. The experiment in a line: kappa opioid receptor activation potency – imaging, image-based, SAR follow-up (AID 2359). In kind it is functional.
Series [18] has as its target T2, Delta-type opioid receptor. The experiment in a line: delta opioid receptor blockers – image-based, SAR follow-up (AID 2357). In kind it is functional.
Series [19] can be described thus: decrease of insulin promoter-GFP reporter – imaging, high-content screening, mouse beta cells (AID 1628). In kind it is functional. To be noted: MIN6.
Series [20] in a line: MIN6 cell viability loss – mouse insulinoma, cytotoxicity control, dose response (AID 2122).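 Note: confirmatory high-throughput counterscreen run to flag cytotoxic compounds.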 In kind it is functional.
In series [21] the target is T5, Cytochrome P450 1A2 (Homo sapiens, UniProt P05177).
T5 sequence (P05177 whole entry): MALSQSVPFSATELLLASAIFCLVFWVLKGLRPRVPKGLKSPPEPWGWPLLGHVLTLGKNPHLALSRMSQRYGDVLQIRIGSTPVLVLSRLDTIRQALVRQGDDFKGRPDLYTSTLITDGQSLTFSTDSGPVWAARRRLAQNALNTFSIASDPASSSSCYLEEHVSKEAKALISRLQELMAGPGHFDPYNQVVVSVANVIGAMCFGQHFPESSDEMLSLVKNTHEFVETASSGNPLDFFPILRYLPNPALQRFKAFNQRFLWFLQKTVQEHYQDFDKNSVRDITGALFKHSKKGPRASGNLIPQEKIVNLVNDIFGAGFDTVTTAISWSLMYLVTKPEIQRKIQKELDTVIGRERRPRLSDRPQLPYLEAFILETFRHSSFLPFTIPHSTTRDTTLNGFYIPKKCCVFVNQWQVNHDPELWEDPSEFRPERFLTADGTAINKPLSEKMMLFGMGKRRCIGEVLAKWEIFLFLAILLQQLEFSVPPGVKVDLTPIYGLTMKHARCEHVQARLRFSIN

Series [22] has as its target T5, Cytochrome P450 1A2. This is another data set of the same source.
The target in the next series is Cytochrome P450 2C9 (Homo sapiens, UniProt P11712).
Chain of Cytochrome P450 2C9 (P11712 whole entry): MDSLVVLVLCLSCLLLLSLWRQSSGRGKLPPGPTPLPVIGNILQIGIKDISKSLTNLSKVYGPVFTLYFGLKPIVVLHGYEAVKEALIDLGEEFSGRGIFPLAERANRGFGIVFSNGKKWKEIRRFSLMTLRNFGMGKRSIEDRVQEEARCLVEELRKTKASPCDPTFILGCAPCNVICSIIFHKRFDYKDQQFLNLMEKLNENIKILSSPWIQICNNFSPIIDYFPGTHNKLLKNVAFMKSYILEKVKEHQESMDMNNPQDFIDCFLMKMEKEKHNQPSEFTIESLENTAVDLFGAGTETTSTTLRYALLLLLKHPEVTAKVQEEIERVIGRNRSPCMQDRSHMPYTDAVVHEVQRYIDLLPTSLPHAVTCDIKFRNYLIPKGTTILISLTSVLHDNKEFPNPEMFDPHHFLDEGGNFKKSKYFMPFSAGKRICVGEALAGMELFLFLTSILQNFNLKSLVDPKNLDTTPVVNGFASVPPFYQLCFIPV
For another series, the target named is Cytochrome P450 3A4 (Homo sapiens, UniProt P08684).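 Note: CYP3A4 tested as one member of a cytochrome P450 panel screen.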
Chain of Cytochrome P450 3A4 (P08684 whole entry): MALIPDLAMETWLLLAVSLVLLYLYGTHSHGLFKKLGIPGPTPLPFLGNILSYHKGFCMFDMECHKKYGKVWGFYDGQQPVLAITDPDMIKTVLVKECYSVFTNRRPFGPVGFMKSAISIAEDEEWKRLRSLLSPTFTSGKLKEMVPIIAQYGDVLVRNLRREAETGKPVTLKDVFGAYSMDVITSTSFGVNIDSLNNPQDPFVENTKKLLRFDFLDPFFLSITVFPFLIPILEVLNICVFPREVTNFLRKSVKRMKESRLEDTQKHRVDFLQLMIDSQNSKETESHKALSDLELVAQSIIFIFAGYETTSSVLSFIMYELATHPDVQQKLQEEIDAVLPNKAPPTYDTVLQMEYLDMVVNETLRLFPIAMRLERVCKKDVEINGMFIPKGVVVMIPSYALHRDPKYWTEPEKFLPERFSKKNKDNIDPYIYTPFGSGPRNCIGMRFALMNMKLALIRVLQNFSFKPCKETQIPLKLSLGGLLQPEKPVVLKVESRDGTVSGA

T3 sequence (P35372 whole entry): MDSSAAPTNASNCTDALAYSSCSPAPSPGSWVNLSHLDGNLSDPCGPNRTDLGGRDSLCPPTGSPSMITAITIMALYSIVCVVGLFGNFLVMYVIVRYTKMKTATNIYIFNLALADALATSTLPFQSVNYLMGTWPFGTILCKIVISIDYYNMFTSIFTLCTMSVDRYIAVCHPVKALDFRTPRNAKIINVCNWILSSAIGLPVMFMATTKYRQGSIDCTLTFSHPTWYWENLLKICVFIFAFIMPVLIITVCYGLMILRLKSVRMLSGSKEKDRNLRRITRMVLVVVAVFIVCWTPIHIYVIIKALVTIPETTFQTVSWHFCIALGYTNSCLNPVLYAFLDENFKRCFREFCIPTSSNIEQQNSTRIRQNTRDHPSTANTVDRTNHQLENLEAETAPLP
T2 sequence (P41143 whole entry): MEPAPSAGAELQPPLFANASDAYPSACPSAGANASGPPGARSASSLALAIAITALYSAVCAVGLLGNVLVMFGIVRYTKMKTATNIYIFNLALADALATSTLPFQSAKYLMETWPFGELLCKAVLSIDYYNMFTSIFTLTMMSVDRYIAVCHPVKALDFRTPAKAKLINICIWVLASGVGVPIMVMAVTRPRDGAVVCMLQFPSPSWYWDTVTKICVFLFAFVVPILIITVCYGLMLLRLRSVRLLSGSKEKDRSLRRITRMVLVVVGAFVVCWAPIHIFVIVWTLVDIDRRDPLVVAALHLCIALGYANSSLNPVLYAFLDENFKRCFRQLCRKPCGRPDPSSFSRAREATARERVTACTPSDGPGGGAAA

In the case of `Cc1cccc(C(=O)NNC(=S)NC(=O)c2cccs2)c1`, the figures for the EC50 in series [1], in series [2] and in series [3] were > 160 µM (inactive), 2.47 µM (active) and 5.96 µM (active), respectively. The IC50 in the series with Vero [4] was 23.5 µM (active). The CC50 with Vero [5] was > 25 µM (active).
For `O=C(c1ccccn1)N(Cc1cccs1)C1(C(=O)NC2CCCCC2)CCCCC1`, the IC50 was > 32 µM (inactive) in series [6]; > 5 µM (inactive) in series [10]; > 32 µM (inactive) in series [15]; > 32 µM (inactive) at Mu-type opioid receptor [16]; > 32 µM (inactive) in [18]. For the same compound, the EC50 at Mu-type opioid receptor [7] was > 32 µM (inactive); in series [8], > 32 µM (inactive); in series [9] it was less than 0.5 µM; in series [11] it was 0.103 µM; in [12] it was 0.116 µM (active); at Mu-type opioid receptor [13], > 32 µM (inactive). Besides, the EC50 in [14] is > 32 µM (inactive); in [17], < 0.06 µM (active).
With `COc1ccc2nc(Nc3nc(C)c(CCC(C)C)c(O)n3)nc(C)c2c1`, the IC50 is 1.95 µM (active) in series [19] and 5.61 µM (active) in series [20].
Take `COc1ccccc1OC[C@H](O)CN1CCN(CC(=O)Nc2c(C)cccc2C)CC1`: the AC50 entry on Cytochrome P450 1A2 [21] is “inactive”.
For `CC(NC(=O)c1ccc(N2CCCC2=O)cc1)c1ccccc1` (centres undefined), the concentration at half-maximal activity (AC50) at Cytochrome P450 1A2 [22] is 39.8 µM (inconclusive); at Cytochrome P450 2C9, 15.8 µM (inconclusive); at Cytochrome P450 3A4, “inconclusive”.

The values above are taken from ChEMBL document CHEMBL1201862, “PubChem BioAssay data set” (2004).
